Consider one compound from publication PMC5222590 (Structure(London, England:1993), 2017).

This experiment concerns the target T1, FusA (Streptococcus pneumoniae, UniProt A0A0H2URD6).
T1 sequence (A0A0H2URD6 47-538): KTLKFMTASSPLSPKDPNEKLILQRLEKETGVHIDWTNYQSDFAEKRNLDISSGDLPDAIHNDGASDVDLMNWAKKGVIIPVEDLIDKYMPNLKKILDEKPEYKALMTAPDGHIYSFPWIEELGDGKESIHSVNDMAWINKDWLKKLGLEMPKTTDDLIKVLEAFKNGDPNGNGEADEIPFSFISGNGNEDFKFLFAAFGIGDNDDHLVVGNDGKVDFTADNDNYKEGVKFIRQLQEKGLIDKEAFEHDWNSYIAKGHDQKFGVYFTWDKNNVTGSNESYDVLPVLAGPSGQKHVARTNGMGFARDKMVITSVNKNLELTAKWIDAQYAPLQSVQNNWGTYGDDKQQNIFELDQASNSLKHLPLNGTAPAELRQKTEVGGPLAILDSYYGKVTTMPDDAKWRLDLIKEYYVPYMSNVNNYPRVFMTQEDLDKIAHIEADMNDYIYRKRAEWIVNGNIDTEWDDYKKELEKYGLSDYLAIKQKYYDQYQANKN
Nature of the experiment: ITC. It counts as binding. As to conditions: pH 7.4, 0.15 M NaCl, 25 °C; 1:1.

Take `OC[C@H]1O[C@@](CO)(OC[C@@]2(OC[C@@]3(O[C@H]4O[C@H](CO)[C@@H](O)[C@H](O)[C@H]4O)O[C@H](CO)[C@@H](O)[C@@H]3O)O[C@H](CO)[C@@H](O)[C@@H]2O)[C@@H](O)[C@@H]1O` [GF3, nystose]: the KD entry was “FusA had submicromolar affinity for fructofuranosyl-nystose and nystose”.
